Data set [1] has as its target T1, ftuFabI (Francisella tularensis subsp. tularensis, UniProt Q5NGQ3). In kind it is biochemical.
In data set [2] the target is T1, ftuFabI. Nature of the data set: biochemical. In kind it is biochemical.
The test system of the next data set is F. tularensis LVS. Nature of the data set: microbe, parasite or virus in culture. In kind it is cell-based, Francisella tularensis. The note with it: for MIC90: Francisella tularensis.
The subject of another data set is F. tularensis Schu4. Also on record: species or system mice. The note with it: mouse, in vivo; for %Survival: ip, 200 mg/kg.
A short description of another data set: in vitro. The note with it: African green monkey.
Data set [3] concerns the target T1, ftuFabI. The class given is biochemical. This is another data set of the same source.
A further data set has as its system ecFabI. Particulars: cited from earlier work.

≈ marks a conversion by molar mass, not a printed value. Entries after “also recorded” stand apart in the source; their conditions may differ.

T1 sequence (Q5NGQ3 1-260): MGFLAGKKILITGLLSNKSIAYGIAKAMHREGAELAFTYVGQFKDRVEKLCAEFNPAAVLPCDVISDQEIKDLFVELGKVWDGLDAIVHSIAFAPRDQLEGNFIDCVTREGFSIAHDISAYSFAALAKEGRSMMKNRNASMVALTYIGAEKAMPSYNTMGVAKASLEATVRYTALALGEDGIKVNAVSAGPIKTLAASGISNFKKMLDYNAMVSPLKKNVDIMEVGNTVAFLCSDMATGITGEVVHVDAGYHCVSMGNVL

In general, Ki refers to the dissociation constant of the complex between target and ligand, obtained from inhibition or displacement. Regarding `Oc1cc(Cl)ccc1Oc1ccc(Cl)cc1Cl` [Compound 1, triclosan, reference compound], on ftuFabI [1], the “Type of Inhibition” value is “uncompetitive inhibitor; also recorded: Slow-onset” and the “fold tighter binding to E:NAD+ than to E:NADH” value is “approximately 90,000 fold”. Further, at ftuFabI [2], the Ki worked out at 0.407 ± 0.048 µM, the k2 was determined as 0.56 ± 0.04 min⁻¹, the “k−2” value was found to be 0.025 ± 0.003 min⁻¹ and the residence time is 40 ± 3 min. The molecule further returned an MIC90 against F. tularensis LVS of 0.015 ng/mL (≈ 5.18e-05 µM). Also, in the data set with F. tularensis Schu4, the “Median Survival” value amounted to 7.8 days, the “efficacy in the 10-day animal model of infection” value (“efficacy” below) was “demonstrated efficacy” and the “%Survival” value is given as 22%. In “in vitro”, this molecule returned a CC50 of 14000 ± 1000 ng/mL (≈ 48.4 µM).
For the molecule `Oc1cc(F)ccc1Oc1ccccc1` [Compound 3, 5-fluoro-2-phenoxyphenol], the “Type of Inhibition” value at ftuFabI [1] was “not a slow-onset inhibitor; also recorded: Rapid equilibrium”. On ftuFabI [3], the “fold decrease in binding affinity compared to 4 and 7” value was 150 fold. Also, in the data set with F. tularensis LVS, the MIC90 was determined as 320 ± 20 ng/mL (≈ 1.57 µM).
With `Oc1cc(Cl)ccc1Oc1ccccc1` [Compound 4, 5-chloro-2-phenoxyphenol], on ftuFabI [1], the “Type of Inhibition” value is “Slow-onset” and the “fold decrease in affinity for ftuFabI compared to triclosan” value was determined as 37 fold. Moreover, on ftuFabI [2], affinity was put at a Ki of 0.665 ± 0.07 µM, the k2 was 0.11 ± 0.01 min⁻¹, the “k−2” value is 0.033 ± 0.002 min⁻¹ and the residence time worked out at 30 ± 2 min. In addition, the MIC90 with F. tularensis LVS turned out to be 1 ± 1 ng/mL (≈ 0.00453 µM). In the data set with F. tularensis Schu4, the “Median Survival” value was found to be 6.8 days, the “efficacy” value was “demonstrated efficacy” and the “%Survival” value amounted to 11%. In addition, the “fold higher affinity for ecFabI than triclosan” value in the data set with ecFabI is 7 fold. This molecule returned a CC50 in “in vitro” of 60000 ± 14000 ng/mL (≈ 272 µM).
In the case of `Cc1ccc(Oc2ccccc2)c(O)c1` [Compound 7, 5-methyl-2-phenoxyphenol], the “Type of Inhibition” value at ftuFabI [1] was “slow-onset inhibitors”. In addition, in the data set with F. tularensis LVS, the MIC90 stood at 160 ± 70 ng/mL (≈ 0.799 µM).
For `CCCc1ccc(Oc2ccccc2)c(O)c1` [Compound 9, 5-propyl-2-phenoxyphenol], the “Type of Inhibition” value on ftuFabI [1] is given as “slow-onset inhibitors”. For the same molecule, at ftuFabI [2], the Ki turned out to be 0.375 ± 0.006 µM, the k2 amounted to 1.66 ± 0.01 min⁻¹, the “k−2” value is 0.017 ± 0.002 min⁻¹ and the residence time came to 59 ± 2 min. Further, in the data set on F. tularensis LVS, the “fold more potent (MIC90) than doxycycline” value is reported as > 4,000 fold, the “fold more potent (MIC90) than gentamicin” value is “more than 22,000 fold” and the MIC90 amounted to 0.18 ± 0.14 ng/mL (≈ 0.000788 µM). Besides, in the data set with F. tularensis Schu4, the “Median Survival” value is listed as 7.8 days, the “efficacy” value was “demonstrated efficacy” and the “%Survival” value was found to be 39%. In “in vitro”, this molecule came in with a CC50 of 62000 ± 3000 ng/mL (≈ 272 µM).
In the data set with F. tularensis LVS, `C[C@H]1c2cccc(O)c2C(=O)C2=C(O)[C@]3(O)C(=O)C(C(N)=O)=C(O)[C@@H](N(C)C)[C@@H]3[C@@H](O)[C@@H]21` [Doxycycline, reference compound] gave an MIC90 of 750 ± 350 ng/mL (≈ 1.69 µM).
Still for that read-out and setting: with `CNC(C)C1CCC(N)C(OC2C(N)CC(N)C(OC3OCC(C)(O)C(NC)C3O)C2O)O1` (stereo not shown) [Gentamicin, reference compound] the figure was 4000 ng/mL (≈ 8.38 µM).
Regarding `[H]/N=C(/N)N[C@H]1[C@H](O)[C@@H](O)[C@H](O[C@@H]2O[C@@H](C)[C@](O)(C=O)[C@H]2O[C@@H]2O[C@@H](CO)[C@H](O)[C@@H](O)[C@@H]2NC)[C@@H](N/C(N)=N\[H])[C@@H]1O` [Streptomycin, reference compound], the MIC90 against F. tularensis LVS was 2000 ng/mL (≈ 3.44 µM).

These data come from paper PMC2693246 (ACS chemical biology, 2009).
